Laboratory results: US11945796B2, “Substituted pyridine derivatives as SARM1 inhibitors” (Nura Bio, Inc., priority 2020, dated 2024)
Like-named read-outs stand apart in the source and are kept apart here.

Biological target: T1, human SARM1(50-724) (Homo sapiens, UniProt Q6SZW1)
T1 construct: 40 nM human SARM1(50-724)
T1 sequence (Q6SZW1 50-724): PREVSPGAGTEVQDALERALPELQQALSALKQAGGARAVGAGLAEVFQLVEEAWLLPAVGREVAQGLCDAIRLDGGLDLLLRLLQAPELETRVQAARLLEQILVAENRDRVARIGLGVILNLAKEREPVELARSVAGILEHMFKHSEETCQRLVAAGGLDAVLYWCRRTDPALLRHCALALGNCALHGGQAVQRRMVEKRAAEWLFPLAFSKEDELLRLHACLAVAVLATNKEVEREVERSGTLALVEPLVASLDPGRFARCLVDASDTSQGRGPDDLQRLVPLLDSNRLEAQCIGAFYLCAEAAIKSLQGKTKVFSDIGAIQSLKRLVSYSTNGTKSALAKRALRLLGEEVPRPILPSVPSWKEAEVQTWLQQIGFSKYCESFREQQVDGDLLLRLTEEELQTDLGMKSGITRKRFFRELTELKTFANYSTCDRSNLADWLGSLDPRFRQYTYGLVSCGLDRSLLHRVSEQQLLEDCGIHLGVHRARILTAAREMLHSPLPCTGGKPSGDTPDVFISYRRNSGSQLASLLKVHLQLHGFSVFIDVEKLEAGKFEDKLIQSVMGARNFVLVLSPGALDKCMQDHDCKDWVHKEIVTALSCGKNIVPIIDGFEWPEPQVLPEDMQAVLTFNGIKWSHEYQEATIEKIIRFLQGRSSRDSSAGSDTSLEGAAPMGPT
Test: SARM1 NADase biochemical assay (HPLC peak areas of NAD and NAM)
Details: for IC50: dose-response, 1:3 serial dilution from 100 μM, 40 nM SARM1, 0.3 mM NMN, 20 μM NAD, 60 min rt
Protocol: The reaction was incubated at room temperature for 60 minutes and quenched with 20 μL of 0.4% formic acid. […] Total run time for each sample was 4 minutes. […] Samples were run at a flow rate of 0.8 mL/min at 55° C. Peak areas of NAD and NAM were determined using OpenLAB CDS (Chem Station edition) software. For dose-response, the compound was diluted serially 1:3 in DMSO and added to the reaction starting at a final compound concentration of 100 μM in 1% DMSO.

[1] = 50 μM compound, NAD peak area, read-out: Avg NAD % inhibition at 50 μM
[2] = 50 μM compound, NAM peak area, read-out: Avg NAM % inhibition at 50 μM

Structure (SMILES) | IC50 [nM] | further results
Fc1cn(Cc2ccncc2)nc1CC(F)(F)F (racemic) [Example 104, 4-{[4-Fluoro-3-(2,2,2-trifluoroethyl)-1H-pyrazol-1-yl]methyl}pyridine] | 1000 to 10000 | –
FC(c1ccncc1)n1ccc(CC(F)(F)F)n1 (racemic) [Example 105, (rac)-4-{Fluoro[3-(2,2,2-trifluoroethyl)-1H-pyrazol-1-yl]methyl}pyridine] | – | inhibition at 50 µM (read-out: Avg NAD % inhibition at 50 μM): 0 to 50%; inhibition at 50 µM (read-out: Avg NAM % inhibition at 50 μM): 0 to 50%
CC(c1ccncc1)n1ccc(C=O)n1 (racemic) [Example 108, (rac)-1-[1-(Pyridin-4-yl)ethyl]-1H-pyrazole-3-carbaldehyde] | – | inhibition at 50 µM [1]: 0 to 50%; inhibition at 50 µM [2]: 0 to 50%
CC(c1ccn(CC(F)(F)F)n1)c1ccncc1Cl (racemic) [Example 112, (rac)-3-Chloro-4-(1-(1-(2,2,2-trifluoroethyl)-1H-pyrazol-3-yl)ethyl)pyridine] | 1000 to 10000 | –
C[C@H](c1ccn(CC(F)(F)F)n1)c1ccncc1Cl (single isomer, unassigned) [Example 113a] | 1000 to 10000 | –
C[C@@H](c1ccncc1)n1ccc(NCC(F)(F)F)n1 [Example 2, (S)-1-(1-(Pyridin-4-yl)ethyl)-N-(2,2,2-trifluoroethyl)-1H-pyrazol-3-amine] | < 1000 | –
c1cc(Cn2ccc(Nc3nccs3)n2)ccn1 [Example 4, N-(1-(Pyridin-4-ylmethyl)-1H-pyrazol-3-yl)thiazol-2-amine] | 1000 to 10000 | –
O=C(Nc1ccn(Cc2ccncc2)n1)C(C(F)(F)F)C(F)(F)F [Example 15, 3,3,3-trifluoro-N-(1-(pyridin-4-ylmethyl)-1H-pyrazol-3-yl)-2-(trifluoromethyl)propanamide] | 1000 to 10000 | –
FC(F)(F)C(CNc1ccn(Cc2ccncc2)n1)C(F)(F)F [Example 16, 1-(Pyridin-4-ylmethyl)-N-(3,3,3-trifluoro-2-(trifluoromethyl)propyl)-1H-pyrazol-3-amine] | 1000 to 10000 | –
Cc1cnccc1Cc1ccn(CC(F)(F)F)n1 [Example 23, 3-Methyl-4-((1-(2,2,2-trifluoroethyl)-1H-pyrazol-3-yl)methyl)pyridine] | 1000 to 10000 | –

Continued, in another order:

IC50 [nM] | Structure (SMILES) | further results
< 1000 | CC(c1ccncc1)n1ccc(NCC(F)F)n1 (racemic) [Example 101, (rac)-N-(2,2-Difluoroethyl)-1-(1-(pyridin-4-yl)ethyl)-1H-pyrazol-3-amine] | –
1000 to 10000 | CC(c1ccncc1)n1ccc(CC(F)F)n1 (racemic) [Example 107, (rac)-4-{1-[3-(2,2-Difluoroethyl)-1H-pyrazol-1-yl]ethyl}pyridine] | –
1000 to 10000 | CC(c1ccncc1)c1ccn(CC#N)n1 (single isomer, unassigned) [Example 12a] | –
< 1000 | CC(c1ccncc1)c1ccn(CC#N)n1 (single isomer, unassigned) [Example 12b] | –
1000 to 10000 | FC(F)CNc1ccn(Cc2ccncc2)n1 [Example 3, N-(2,2-Difluoroethyl)-1-(pyridin-4-ylmethyl)-1H-pyrazol-3-amine] | –
1000 to 10000 | N#CCn1ccc(Cc2ccncc2)n1 [Example 9, 2-(3-(Pyridin-4-ylmethyl)-1H-pyrazol-1-yl)acetonitrile] | –
1000 to 10000 | FC(F)Cn1ccc(Cc2ccncc2)n1 [Example 10, 4-((1-(2,2-Difluoroethyl)-1H-pyrazol-3-yl)methyl)pyridine] | –
1000 to 10000 | N#CCNc1ccn(Cc2ccncc2)n1 [Example 17, 2-((1-(Pyridin-4-ylmethyl)-1H-pyrazol-3-yl)amino)acetonitrile] | –
1000 to 10000 | FC(F)(F)Cn1ccc(Cc2ccncc2)n1 [Example 20, 4-((1-(2,2,2-Trifluoroethyl)-1H-pyrazol-3-yl)methyl)pyridine] | –
10000 to 100000 | FC(F)(F)CNc1ccn(Cc2ccncc2)n1 [Example 26, 1-(Pyridin-4-ylmethyl)-N-(2,2,2-trifluoroethyl)-1H-pyrazol-3-amine] | inhibition at 50 µM [1]: 0 to 50%; inhibition at 50 µM [2]: 0 to 50%
< 1000 | FC(F)(F)Cc1ccn(Cc2ccncc2)n1 [Example 29, 4-((3-(2,2,2-Trifluoroethyl)-1H-pyrazol-1-yl)methyl)pyridine] | –
